Target: bovine cardiac myofibrils (full-length cardiac myosin ATPase in the native sarcomere) (Bos taurus (Bovine), UniProt Q9BE39)
Experiment: Skinned bovine cardiac myofibril ATPase assay (PK/LDH-coupled)
Assay type: biochemical
Conditions: Ca2+ activating to 75% of maximal rate; for CDMF75 IC15: concentration giving 15% inhibition; for IC50: read-out: CDMF75 IC50
Outline: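 Inhibition of steady-state ATPase read at 340 nm through a PK/LDH-coupled NADH system (0.5 mM NADH, 1.5 mM PEP). Detergent-skinned bovine cardiac myofibrils, 1 mg/mL, were tested at pH 6.8 in PIPES/MgCl2 with 50 μM ATP and calcium adjusted to give pCa50 or pCa75 activation.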

Chain of bovine cardiac myofibrils (full-length cardiac myosin ATPase in the native sarcomere) (Q9BE39 whole entry): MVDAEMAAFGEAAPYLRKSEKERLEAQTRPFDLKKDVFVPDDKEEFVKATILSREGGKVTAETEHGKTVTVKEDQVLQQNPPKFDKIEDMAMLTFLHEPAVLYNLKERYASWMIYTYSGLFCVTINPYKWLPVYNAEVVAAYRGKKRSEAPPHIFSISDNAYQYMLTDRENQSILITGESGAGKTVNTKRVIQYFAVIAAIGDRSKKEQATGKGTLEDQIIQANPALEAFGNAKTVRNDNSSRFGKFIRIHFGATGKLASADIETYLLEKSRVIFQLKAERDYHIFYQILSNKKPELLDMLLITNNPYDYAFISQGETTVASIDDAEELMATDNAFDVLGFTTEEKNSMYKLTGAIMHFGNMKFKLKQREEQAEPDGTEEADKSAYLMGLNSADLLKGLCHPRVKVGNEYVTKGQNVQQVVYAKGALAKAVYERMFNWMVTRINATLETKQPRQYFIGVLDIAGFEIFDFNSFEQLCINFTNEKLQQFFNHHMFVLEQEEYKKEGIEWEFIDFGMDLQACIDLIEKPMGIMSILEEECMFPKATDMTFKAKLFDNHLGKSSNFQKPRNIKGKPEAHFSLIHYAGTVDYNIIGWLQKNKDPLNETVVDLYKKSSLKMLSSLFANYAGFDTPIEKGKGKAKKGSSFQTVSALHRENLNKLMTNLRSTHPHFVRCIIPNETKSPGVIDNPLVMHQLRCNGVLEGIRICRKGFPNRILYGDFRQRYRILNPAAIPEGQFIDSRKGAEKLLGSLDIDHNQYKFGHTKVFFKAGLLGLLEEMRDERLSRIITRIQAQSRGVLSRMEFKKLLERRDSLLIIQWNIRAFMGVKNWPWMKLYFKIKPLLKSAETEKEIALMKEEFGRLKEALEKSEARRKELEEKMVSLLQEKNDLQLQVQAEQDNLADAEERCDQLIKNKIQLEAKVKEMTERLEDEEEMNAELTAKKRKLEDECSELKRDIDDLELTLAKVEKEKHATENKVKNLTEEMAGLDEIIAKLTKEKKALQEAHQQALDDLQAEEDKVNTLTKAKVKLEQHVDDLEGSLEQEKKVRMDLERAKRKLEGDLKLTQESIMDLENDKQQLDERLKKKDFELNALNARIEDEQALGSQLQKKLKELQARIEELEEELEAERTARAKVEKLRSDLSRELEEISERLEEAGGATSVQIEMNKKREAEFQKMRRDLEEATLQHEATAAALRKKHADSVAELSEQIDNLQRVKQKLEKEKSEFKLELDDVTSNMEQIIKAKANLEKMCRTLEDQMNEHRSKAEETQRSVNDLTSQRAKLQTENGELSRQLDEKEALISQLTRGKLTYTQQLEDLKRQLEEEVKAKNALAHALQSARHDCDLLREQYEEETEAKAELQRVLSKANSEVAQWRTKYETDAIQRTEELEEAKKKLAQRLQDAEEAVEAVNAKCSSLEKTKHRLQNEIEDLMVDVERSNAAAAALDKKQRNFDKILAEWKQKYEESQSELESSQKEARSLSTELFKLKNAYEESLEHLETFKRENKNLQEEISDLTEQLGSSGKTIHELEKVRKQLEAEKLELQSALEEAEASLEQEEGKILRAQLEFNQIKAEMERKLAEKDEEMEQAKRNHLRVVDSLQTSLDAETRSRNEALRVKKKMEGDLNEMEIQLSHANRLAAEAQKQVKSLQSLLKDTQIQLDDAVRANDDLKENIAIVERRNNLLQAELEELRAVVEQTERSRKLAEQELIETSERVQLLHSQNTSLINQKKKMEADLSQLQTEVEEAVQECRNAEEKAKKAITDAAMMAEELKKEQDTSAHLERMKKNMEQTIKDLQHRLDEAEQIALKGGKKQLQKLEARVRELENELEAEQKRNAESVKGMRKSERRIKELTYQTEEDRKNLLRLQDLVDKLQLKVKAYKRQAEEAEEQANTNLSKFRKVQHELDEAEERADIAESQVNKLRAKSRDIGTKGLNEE
Chain of bovine cardiac myofibrils (full-length cardiac myosin ATPase in the native sarcomere) (P85100 whole entry partner): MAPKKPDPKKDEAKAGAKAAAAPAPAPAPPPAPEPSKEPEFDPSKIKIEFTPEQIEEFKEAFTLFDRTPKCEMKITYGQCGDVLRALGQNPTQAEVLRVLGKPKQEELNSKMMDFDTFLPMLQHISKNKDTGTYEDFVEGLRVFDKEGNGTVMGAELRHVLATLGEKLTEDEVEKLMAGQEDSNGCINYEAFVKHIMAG
Chain of bovine cardiac myofibrils (full-length cardiac myosin ATPase in the native sarcomere) (Q3SZE5 whole entry partner): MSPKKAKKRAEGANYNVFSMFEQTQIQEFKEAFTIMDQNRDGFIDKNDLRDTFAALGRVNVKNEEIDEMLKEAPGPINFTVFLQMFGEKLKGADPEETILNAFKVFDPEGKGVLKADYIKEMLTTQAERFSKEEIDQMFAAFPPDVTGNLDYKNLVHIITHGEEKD

Row | CDMF75 IC15 | IC50 | Compound
1 | 500 nM | 1800 nM | Cc1nc(-c2ccc3c(c2)OC[C@H]3NC(=O)c2ocnc2C)no1 [Compound 454, (S)-4-methyl-N-(6-(5-methyl-1,2,4-oxadiazol-3-yl)-2,3-dihydrobenzofuran-3-yl)oxazole-5-carboxamide]
2 | 1300 nM | 4600 nM | Cc1ncc(C(=O)N[C@@H]2CCc3cc(-c4noc(C(C)C)n4)ccc32)o1 [Compound 391, (R)-N-(5-(5-isopropyl-1,2,4-oxadiazol-3-yl)-2,3-dihydro-1H-inden-1-yl)-2-methyloxazole-5-carboxamide]
3 | 700 nM | 2200 nM | COCc1nc(-c2ccc3c(c2)CC[C@H]3NC(=O)c2cc(C)nn2C)no1 [Compound 179, (R)-N-(5-(5-(methoxymethyl)-1,2,4-oxadiazol-3-yl)-2,3-dihydro-1H-inden-1-yl)-1,3-dimethyl-1H-pyrazole-5-carboxamide]
4 | 900 nM | 2700 nM | [2H]C([2H])([2H])c1nc(-c2ccc3c(c2)OC[C@H]3NC(=O)c2cc(C)nn2C)no1 [Compound 266, (S)-1,3-dimethyl-N-(6-(5-(methyl-d3)-1,2,4-oxadiazol-3-yl)-2,3-dihydrobenzofuran-3-yl)-1H-pyrazole-5-carboxamide]
5 | 1400 nM | 5200 nM | [2H]C([2H])([2H])c1nc(-c2ccc3c(c2)CC[C@H]3NC(=O)c2cnc(C)o2)no1 [Compound 249, (R)-2-methyl-N-(5-(5-(methyl-d3)-1,2,4-oxadiazol-3-yl)-2,3-dihydro-1H-inden-1-yl)oxazole-5-carboxamide]
6 | 1100 nM | 3500 nM | Cc1ncc(C(=O)NC2CCc3cc(-c4noc(C(F)F)n4)ccc32)n1C (stereo not shown) [Compound 61, N-(5-(5-(difluoromethyl)-1,2,4-oxadiazol-3-yl)-2,3-dihydro-1H-inden-1-yl)-1,2-dimethyl-1H-imidazole-5-carboxamide]
7 | 1000 nM | 3400 nM | Cc1ncc(C(=O)NC2CCc3cc(-c4noc(C(F)F)n4)ccc32)s1 (stereo not shown) [Compound 10, N-(5-(5-(difluoromethyl)-1,2,4-oxadiazol-3-yl)-2,3-dihydro-1H-inden-1-yl)-2-methylthiazole-5-carboxamide]
8 | 21200 nM | > 39200 nM | Cc1cc(C(=O)N[C@@H]2CCc3cc(-c4coc(C)n4)ccc32)ccn1 [Compound 146, (R)-2-methyl-N-(5-(2-methyloxazol-4-yl)-2,3-dihydro-1H-inden-1-yl)isonicotinamide]
9 | 2500 nM | 12900 nM | CCc1nc(-c2ccc3c(c2)CC[C@H]3NC(=O)c2cocn2)no1 [Compound 587, (R)-N-(5-(5-ethyl-1,2,4-oxadiazol-3-yl)-2,3-dihydro-1H-inden-1-yl)oxazole-4-carboxamide]
10 | 400 nM | 1400 nM | COCc1nc(-c2ccc3c(c2)CC[C@H]3NC(=O)c2ccnn2C)no1 [Compound 175, (R)-N-(5-(5-(methoxymethyl)-1,2,4-oxadiazol-3-yl)-2,3-dihydro-1H-inden-1-yl)-1-methyl-1H-pyrazole-5-carboxamide]
11 | 600 nM | 2400 nM | O=C(N[C@@H]1CCc2cc(-c3noc(C4CC4)n3)ccc21)OCC1CC1 [Compound 326, cyclopropylmethyl (R)-(5-(5-cyclopropyl-1,2,4-oxadiazol-3-yl)-2,3-dihydro-1H-inden-1-yl)carbamate]
12 | 1000 nM | 4100 nM | COCc1nc(-c2ccc3c(c2)CC[C@H]3NC(=O)c2cn(C)nc2C)no1 [Compound 182, (R)-N-(5-(5-(methoxymethyl)-1,2,4-oxadiazol-3-yl)-2,3-dihydro-1H-inden-1-yl)-1,3-dimethyl-1H-pyrazole-4-carboxamide]
13 | 9800 nM | > 39200 nM | O=C(NC1CCc2cc(-c3noc(C(F)F)n3)ccc21)c1ccn[nH]1 (stereo not shown) [Compound 49, N-(5-(5-(difluoromethyl)-1,2,4-oxadiazol-3-yl)-2,3-dihydro-1H-inden-1-yl)-1H-pyrazole-5-carboxamide]
14 | 1100 nM | 4300 nM | CC(C)c1nc(-c2ccc3c(c2)CC[C@H]3NC(=O)c2cn[nH]c2)no1 [Compound 488, (R)-N-(5-(5-isopropyl-1,2,4-oxadiazol-3-yl)-2,3-dihydro-1H-inden-1-yl)-1H-pyrazole-4-carboxamide]

The remaining lines, values behind:

Row | Compound | CDMF75 IC15 | IC50
15 | Cc1nc(C(=O)NC2CCc3cc(-c4noc(C)n4)ccc32)no1 (stereo not shown) [Compound 87, 5-methyl-N-(5-(5-methyl-1,2,4-oxadiazol-3-yl)-2,3-dihydro-1H-inden-1-yl)-1,2,4-oxadiazole-3-carboxamide] | 3700 nM | 15700 nM
16 | [2H]C([2H])([2H])c1noc(-c2ccc3c(c2)OC[C@H]3NC(=O)c2cnn(C)c2C)n1 [Compound 341, (S)-1,5-dimethyl-N-(6-(3-(methyl-d3)-1,2,4-oxadiazol-5-yl)-2,3-dihydrobenzofuran-3-yl)-1H-pyrazole-4-carboxamide] | 1900 nM | 7300 nM
17 | Cn1nccc1C(=O)N[C@@H]1CCc2cc(-c3nccs3)ccc21 [Compound 370, (R)-1-methyl-N-(5-(thiazol-2-yl)-2,3-dihydro-1H-inden-1-yl)-1H-pyrazole-5-carboxamide] | 3800 nM | 19100 nM
18 | CCc1nc(-c2ccc3c(c2)CC[C@H]3NC(=O)c2nn[nH]n2)no1 [Compound 502, (R)-N-(5-(5-ethyl-1,2,4-oxadiazol-3-yl)-2,3-dihydro-1H-inden-1-yl)-2H-tetrazole-5-carboxamide] | 2000 nM | 8000 nM
19 | Cc1csc(C(=O)NC2CCc3cc(-c4noc(C(F)F)n4)ccc32)n1 (stereo not shown) [Compound 60, N-(5-(5-(difluoromethyl)-1,2,4-oxadiazol-3-yl)-2,3-dihydro-1H-inden-1-yl)-4-methylthiazole-2-carboxamide] | 2300 nM | 8300 nM
20 | CCc1nc(-c2ccc3c(c2)CC[C@H]3NC(=O)c2cnc(CO)n2C)no1 [Compound 613, (R)-N-(5-(5-ethyl-1,2,4-oxadiazol-3-yl)-2,3-dihydro-1H-inden-1-yl)-2-(hydroxymethyl)-1-methyl-1H-imidazole-5-carboxamide] | 400 nM | 1400 nM
21 | Cn1nccc1C(=O)N[C@@H]1CCc2cc(-c3nc(C4CC4)no3)ccc21 [Compound 261, (R)—N-(5-(3-cyclopropyl-1,2,4-oxadiazol-5-yl)-2,3-dihydro-1H-inden-1-yl)-1-methyl-1H-pyrazole-5-carboxamide] | 400 nM | 1200 nM
22 | Cc1cc(C(=O)N[C@@H]2CCc3cc(-c4noc(C(F)F)n4)ccc32)ncn1 [Compound 683, (R)-N-(5-(5-(difluoromethyl)-1,2,4-oxadiazol-3-yl)-2,3-dihydro-1H-inden-1-yl)-6-methylpyrimidine-4-carboxamide] | 1100 nM | 4600 nM
23 | Cn1nnc(C(=O)NC2COc3cc(-c4noc(C(F)F)n4)ccc32)n1 (stereo not shown) [Compound 197, N-(6-(5-(difluoromethyl)-1,2,4-oxadiazol-3-yl)-2,3-dihydrobenzofuran-3-yl)-2-methyl-2H-tetrazole-5-carboxamide] | 3200 nM | 12400 nM
24 | Cc1nc(-c2ccc3c(c2)CCC3NC(=O)c2ncn(C)n2)no1 (stereo not shown) [Compound 119, 1-methyl-N-(5-(5-methyl-1,2,4-oxadiazol-3-yl)-2,3-dihydro-1H-inden-1-yl)-1H-1,2,4-triazole-3-carboxamide] | 39200 nM | > 39200 nM
25 | Cc1cc(C(=O)N[C@@H]2CCc3cc(-c4noc(C(F)F)n4)ccc32)n(C)n1 [Compound 101, (R)-N-(5-(5-(difluoromethyl)-1,2,4-oxadiazol-3-yl)-2,3-dihydro-1H-inden-1-yl)-1,3-dimethyl-1H-pyrazole-5-carboxamide] | 300 nM | 1100 nM
26 | CCc1nc(-c2ccc3c(c2)CCC3C(=O)Nc2cnn(C)c2)no1 (stereo not shown) [Compound 482, 5-(5-ethyl-1,2,4-oxadiazol-3-yl)-N-(1-methyl-1H-pyrazol-4-yl)-2,3-dihydro-1H-indene-1-carboxamide] | 3900 nM | –
27 | CCc1nc(-c2ccc3c(c2)CC[C@H]3NC(=O)OCC2COC2)no1 [Compound 358, oxetan-3-ylmethyl (R)-(5-(5-ethyl-1,2,4-oxadiazol-3-yl)-2,3-dihydro-1H-inden-1-yl)carbamate] | 600 nM | 2200 nM
28 | O=C(N[C@@H]1CCc2cc(-c3noc(C4CCC4)n3)ccc21)c1cnn(CCO)c1 [Compound 524, (R)-N-(5-(5-cyclobutyl-1,2,4-oxadiazol-3-yl)-2,3-dihydro-1H-inden-1-yl)-1-(2-hydroxyethyl)-1H-pyrazole-4-carboxamide] | 1700 nM | 7300 nM
29 | Cn1nnc(C(=O)N[C@@H]2COc3cc(-c4noc(C5CC5)n4)ccc32)n1 [Compound 235, (S)-N-(6-(5-cyclopropyl-1,2,4-oxadiazol-3-yl)-2,3-dihydrobenzofuran-3-yl)-2-methyl-2H-tetrazole-5-carboxamide] | 1200 nM | 4800 nM
30 | CCc1nc(-c2ccc3c(c2)CC[C@H]3NC(=O)c2cn(C)nc2C)no1 [Compound 563, (R)-N-(5-(5-ethyl-1,2,4-oxadiazol-3-yl)-2,3-dihydro-1H-inden-1-yl)-1,3-dimethyl-1H-pyrazole-4-carboxamide] | 400 nM | 1200 nM
31 | CCc1cc(-c2ccc3c(c2)OC[C@H]3NC(=O)c2ocnc2C)no1 [Compound 424, (S)-N-(6-(5-ethylisoxazol-3-yl)-2,3-dihydrobenzofuran-3-yl)-4-methyloxazole-5-carboxamide] | 200 nM | 600 nM
